{"source": "patent US9828573B2", "about": "“Alcohol composition and derivatives thereof” (SHELL OIL COMPANY, priority 2015, dated 2017)", "origin": "cited, not measured here", "system": "Proponibacterium acnes", "details": "Journal of Natural Products Vol. 57, No. 1, pp. 9-17, January 1994"}
{"compound": "CCCCCCCCCCCCCCCO", "note": "[Normal 1-pentadecanol, 1-pentadecanol]", "values": [{"measurement": "activity against Proponibacterium acnes", "result": "specific activity"}]}
